Experiments:
α2 -macroglobulins = assay: fibrinolytic inhibitors: α2-macroglobulins titrated by radial immuno-diffusion in standard plasma; type: biochemical; conditions: one hour at 37° C.
Experimental: (§1) The main inhibitors of anti-plasminic type, viz. α2 -macroglobulins, α1 -anti-trypsins and anti-thrombin III were titrated according to the radial immuno-diffusion techniques.
(§2) Three concentrations of compound I were incorporated to a pool of standard plasma and incubated for one hour at 37° C. At non-lytic doses by deficiency (suspended standard clots) the compound I gives a decrease of about 10% of α2 -macroglobulins level, a decrease of about 20% of α1 -anti-trypsins level and a decrease of about 10% of anti-thrombin III level.

anti-thrombin III = assay: fibrinolytic inhibitors: anti-thrombin III titrated by radial immuno-diffusion in standard plasma; type: biochemical; conditions: one hour at 37° C.
Experimental: as §1, §2

plasmatic clot = assay: retraction of plasmatic clot in vitro; type: biochemical; conditions: concentrations ≥ 1,79 mg/ml of plasma, 60 minutes
Experimental: The inhibiting action of compound I on the retraction of plasmatic clot was evidenced in vitro. At the concentrations ≥ 1,79 mg/ml of plasma, the compound I inhibits totally (100%) the normal retraction of the clot measured for a lapse of 60 minutes.

erythrocytes from dog = assay: aggregation of erythrocytes induced by Dextran, in vitro, dog erythrocytes; type: cell-based; conditions: at 0.001 and 0.002 molar
Excerpt: (§3) The inhibiting action of compound I on the aggregation of erythrocytes induced by Dextran was evidenced in vitro on erythrocytes from human, dog and rabbit, according to the method of Von Kaulla K.N., ArzneimittelForschung, Drug Research 25 (2) 152-155 (1975).

fibrinolytic activity = fibrinolytic activity in male rats after P.O. administration; type: in vivo; conditions: 25 mg/kg P.O.
Experimental: The fibrinolytic activity was determined on a batch of 7 male rats after administration of 25 mg/kg P.O. of compound I. It was observed that the fibrinolytic activity increases respectively of 14 and 11%, 60 and 90 minutes after the administration of the product. The return to basis values takes place 3 hours after this administration.

α1 -anti-trypsins = assay: fibrinolytic inhibitors: α1-anti-trypsins titrated by radial immuno-diffusion in standard plasma; type: biochemical; conditions: one hour at 37° C.
Experimental: as §1, §2

erythrocytes from rabbit = assay: aggregation of erythrocytes induced by Dextran, in vitro, rabbit erythrocytes; type: cell-based; conditions: at 0.001 and 0.002 molar
Excerpt: as §3

erythrocytes from human = assay: aggregation of erythrocytes induced by Dextran, in vitro, human erythrocytes; type: cell-based; conditions: at 0.001 and 0.002 molar
Excerpt: as §3

platelet stickiness = assay: platelet stickiness, Salzman method, in the rabbit; type: in vivo; conditions: 50 mg/kg P.O., 4 hours after administration
Experimental: By using the Salzman method, J. Lab. Clin. Med. 62, 724 (1963), it was observed that the compound I decreases by 20% the platelet stickiness, 4 hours after the administration of 50 mg/kg P.O. of the product in the rabbit.

fibrinogen = fibrinogen level in standard plasma incubated with compound I; type: biochemical; conditions: non-lytic doses by excess (high concentrations)
monomers of fibrin = assay: level of monomers of fibrin in the rabbit after I.V. administration; type: in vivo; conditions: 5 mg/kg I.V.
Excerpt: This decrease reaches 23%, ten minutes after the injection.

[1] = toxicity (LD50) in mice, I.V. and P.O.; conditions: mouse, in vivo

For `CCCCCc1cc(O)c(C(=O)O)c(O)c1` [compound I, 4-n-pentyl-6-hydroxy salicylic acid], the “decrease of α2 -macroglobulins level” value (α2 -macroglobulins; lytic doses) was “about 20%”, the “decrease of α2 -macroglobulins level” value (α2 -macroglobulins; non-lytic doses by deficiency) was “about 10%” and the “decrease of anti-thrombin III level” value (anti-thrombin III; lytic doses) was 50%. The “decrease of anti-thrombin III level” value (anti-thrombin III; non-lytic doses by deficiency) was “about 10%”, the “inhibition of the normal retraction of the clot” value (plasmatic clot) was 100% and the “inhibition of the aggregation of erythrocytes induced by Dextran” value (“inhibition of the aggregation … by Dextran” below) (erythrocytes from dog) was 100%. For the same compound, the “return of fibrinolytic activity to basis values, time after administration” value (fibrinolytic activity) was 3 h, the “increase of fibrinolytic activity” value (fibrinolytic activity; 60 minutes after administration) was 14% and the “increase of fibrinolytic activity” value (fibrinolytic activity; 90 minutes after administration) was 11%. For the same compound, the “decrease of α1 anti-trypsins level” value (α1 -anti-trypsins; lytic doses) was 80%, the “decrease of α1 -anti-trypsins level” value (α1 -anti-trypsins; non-lytic doses by deficiency) was “about 20%” and the “inhibition of the aggregation … by Dextran” value (erythrocytes from rabbit) was 100%. For the same compound, the “inhibition of the aggregation … by Dextran” value (erythrocytes from human) was 100%, the “decrease of platelet stickiness” value (platelet stickiness) was 20% and the fibrinogen level (fibrinogen) was “important decrease”. For the same compound, the “decrease of the level of monomers of fibrin” value (monomers of fibrin; ten minutes after injection) was 23%, the “decrease of the level of monomers of fibrin” value (monomers of fibrin; two minutes after injection) was 10% and the LD50 ([1]; iv, I.V.) was 50 to 100 mg/kg. It also gave an LD50 ([1]; po, P.O.) of 1000 to 1500 mg/kg.

From patent US4132787A, “Pharmaceutical compositions containing a gamma-resorcylic acid derivative in the treatment of thrombosis” (Science Union et Cie, priority 1975, dated 1979)
